This is an account of results in US20130296311A1, “INHIBITORS OF HCV NS5A” (PRESIDIO PHARMACEUTICALS, INC., priority 2010, published 2013).

Like-named read-outs stand apart in the source and are kept apart here.

In this experiment the test system is HCV 1b_Huh-Luc/Neo-ET cell line persistently expressing a bicistronic genotype 1b replicon in Huh 7 cells. The experiment in a line: HCV replicon assay (luciferase readout, 72 h). In kind it is cell-based, HCV genotype 1b. The settings on record: Hepatitis C virus. Put shortly:
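EC50 values come from a four-parameter fit of luciferase signal as % of untreated control, repeated across several determinations. The signal is from the HCV 1b_Huh-Luc/Neo-ET replicon line, dosed in triplicate one day post-plating and incubated 72 h before Bright-Glo readout.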
On the technique in general: In antiviral work, replicon cells carry a viral genome segment that copies itself.

Setting [1] is: Huh-7, read-out: Inhibition of HCV genotype 1b.
The mark [2] stands for this setting: Huh-7, 72 h, read-out: Inhibition of HCV genotype 1b.

For the molecule `COC(=O)N[C@H](C(=O)N1CCN(C(=O)OC)C[C@H]1c1ncc(-c2ccc(C#Cc3ccc4nc([C@@H]5CCCN5C(=O)[C@@H](NC(=O)OC)C5CCOCC5)[nH]c4c3)cc2)[nH]1)C(C)C` [Compound 1229], under setting [1], the EC50 is < 1 nM.
Still for that read-out and setting: next, `COC(=O)N[C@H](C(=O)N1CCC[C@H]1c1nc(C(F)(F)F)c(C#Cc2ccc3cc(-c4cnc([C@@H]5CCCN5C(=O)[C@@H](NC(=O)OC)[C@@H](C)OC)[nH]4)ccc3c2)[nH]1)C(C)C` [Compound 1261]: < 1 nM.
For the molecule `CC(C)[C@@H](C(=O)N1CCC[C@H]1c1ncc(-c2ccc(C#Cc3ccc(-c4cnc([C@@H]5CCCN5C(=O)[C@H](C(C)C)N5CCOC5=O)[nH]4)cc3)cc2)[nH]1)N1CCOC1=O` [Compound 1006], the EC50 under setting [2] was in the range of 10 to 999 nM.
As to `COC(=O)N[C@H](C(=O)N1CCC[C@H]1c1nc2c([nH]1)-c1ccc(C#Cc3ccc4nc([C@@H]5CCCN5C(=O)[C@@H](NC(=O)OC)C5CCOCC5)[nH]c4c3)cc1CCC2)C(C)C` [Compound 1280], under setting [1], the EC50 is < 1 nM.
With `COC(=O)N[C@H](C(=O)N1CCC[C@H]1c1ncc(C#Cc2ccc(-c3ccc(-c4cnc([C@@H]5CCCN5C(=O)[C@@H](NC(=O)OC)C(C)C)[nH]4)cc3)cc2)[nH]1)C(C)C` [Compound 756], under setting [2], the EC50 was < 1 nM.
Turning to `CCN(CC)[C@@H](C(=O)N1CCC[C@H]1c1ncc(-c2ccc(C#Cc3ccc(-c4cnc([C@@H]5CCCN5C(=O)[C@H](NS(C)(=O)=O)c5ccccc5)[nH]4)cc3)cc2)[nH]1)c1ccccc1` [Compound 229], the EC50 under setting [2] was < 1 nM.
Same read-out and setting: next, `[2H]C([2H])([2H])C([2H])(C([2H])([2H])[2H])[C@]([2H])(NC(=O)OC)C(=O)N1CCC[C@H]1c1nc2ccc(C#Cc3ccc4c(c3)CCc3nc([C@@H]5CCCN5C(=O)[C@@H](NC(=O)OC)C(C)C)[nH]c3-4)cc2[nH]1` [Compound 1106]: < 1 nM.
For `COC(=O)N[C@H](C(=O)N1CCN(C(=O)OC)C[C@H]1c1ncc(-c2ccc(C#Cc3ccc(-c4cnc([C@@H]5CCCN5C(=O)[C@H](NC(=O)OC)c5ccccc5)[nH]4)cc3)cc2)[nH]1)C(C)C` [Compound 1206], the EC50 under setting [1] is < 1 nM.
Take `COC(=O)N[C@H](C(=O)N1CCC[C@H]1c1ncc(-c2ccc(C#Cc3ccc4nc([C@@H]5CCCN5C(=O)[C@@H](NC(=O)OC)[C@@H](C)OC)[nH]c4c3)cc2)[nH]1)[C@@H](C)OC` [Compound 862]: the EC50 under setting [2] is < 1 nM.
For the molecule `COC(=O)N[C@H](C(=O)N1CCC[C@H]1c1ncc(-c2ccc3cc(C#Cc4[nH]c([C@@H]5CCCN5C(=O)[C@@H](NC(=O)OC)C(C)C)nc4C4CC4)ccc3c2)[nH]1)C(C)C` [Compound 1300], under setting [1], the EC50 was < 1 nM.
As for `COC(=O)N[C@@H](C(=O)N1CCC[C@H]1c1ncc(-c2ccc(C#Cc3ccc(-c4cnc([C@@H]5CCCN5C(=O)[C@H](NC(=O)N5CC[C@H](F)C5)c5ccccc5)[nH]4)cc3)cc2)[nH]1)c1ccccc1` [Compound 270], the EC50 under setting [2] is < 1 nM.
Consider `COC(=O)N[C@@H](C(=O)N1CCN(C(C)=O)C[C@H]1c1ncc(-c2ccc(C#Cc3ccc4nc([C@@H]5CCCN5C(=O)[C@H](NC(=O)OC)c5ccccc5)[nH]c4c3)cc2)[nH]1)c1ccccc1` [Compound 1233], for which the EC50 under setting [1] was < 1 nM.
For the molecule `COC(=O)N[C@H](C(=O)N1CCC[C@H]1c1ncc(-c2ccc(C#Cc3ccc4nc([C@@H]5CCCN5C(=O)[C@@H](NC(=O)OC)[C@@H](C)O)[nH]c4c3)cc2)[nH]1)[C@@H](C)O` [Compound 863], the EC50 under setting [2] was < 1 nM.
Same read-out and setting: the value for `COC(=O)N[C@@H](C(=O)N1CCC[C@H]1c1ncc(-c2ccc(C#Cc3ccc(-c4cnc([C@@H]5CCCN5C(=O)[C@H](NC(=O)C5(O)CC5)c5ccccc5)[nH]4)cc3)cc2)[nH]1)c1ccccc1` [Compound 277] was < 1 nM.
Still for that read-out and setting: the value for `COC(=O)N[C@H](C(=O)N1CCC[C@H]1c1ncc(-c2cc(C)c(C#Cc3ccc4nc([C@@H]5CCCN5C(=O)[C@@H](NC(=O)OC)C(C)C)[nH]c4c3)c(C)c2)[nH]1)C(C)C` [Compound 1060] was < 1 nM.
